Assay results published in patent US9623030B2, “Tumescent antibiotic solution” (priority 2004, dated 2017).
In brackets after ≈: the same amount, converted by molar mass.

How the values were obtained:
[1] = 1 gm given at the end of the surgery; 405 abdominal surgery patients; cited from earlier work
[2] = tested on: Staphyloccus aureus (MRSA) ATCC 33592; test: Minimum Inhibitory Concentration (MIC) by dilution; settings: Staphylococcus aureus, read-out: MIC
Procedure: Following inoculation, survival of test microorganisms was determined.

[3] = female, human, in vivo
Procedure: A clinical pharmacologic investigation was conducted to compare the pharmacokinetic advantages of two modes of systemic antibiotic delivery, Tumescent antibiotic delivery (TAD), which involves the delivery of a relatively large volume of an antibiotic-containing solution to the subcutaneous compartment, and intravenous antibiotic delivery (IVAD), which results in direct delivery of antibiotics to the blood stream, for prophylaxis of SSI.
With Institutional Review Board (IRB) approval, the absorption pharmacokinetics of tumescent antibiotic delivery (TAD) and intravenous antibiotic delivery (IVAD) were tested in human subjects and the antibiotic delivery modes were evaluated with respect to the area under the curve (AUC) of antibiotic concentration as a function of time and peak antibiotic concentration (Cmax) in serum and TISF. 4 female subjects participated in at least one study, one subject volunteered for 2 separate studies. 5 studies were conducted: 3 involved TAD to the abdomen, 1 involved TAD to the hips and outer thighs and 1 involved TAD to the breasts. […] Each of the 5 studies consisted of 2 to 3 pharmacokinetic procedures, for a total of 14 procedures. Any procedures conducted on an individual subject were separated by at least one week. In 13 procedures only IVAD or TAD, was used. […]

[4] = cited from earlier work
platelet aggregation = settings: cited from earlier work
S. aureus = settings: effect increases with greater duration of exposure; cited from earlier work

For O=C(Cc1cccs1)N[C@@H]1C(=O)N2C(C(=O)[O-])=C(C[n+]3ccccc3)CS[C@H]12 [cephaloridine], the “incidence of wound infection, intravenous vs intra incisional” value [1] is given as “no significant difference”.

For Cc1nnc(SCC2=C(C(=O)O)N3C(=O)[C@@H](NC(=O)Cn4cnnn4)[C@H]3SC2)s1 [Cefazolin], the MIC [2] was 125 to 250 µg/mL (≈ 275 to 550 µM).

With Cc1ncc([N+](=O)[O-])n1CCO [Metronidazole] the “interval in which serum concentration of metronidazole exceeded 4 μg/ml” value [3] was 0 to 12 h.

For CCN(CC)CC(=O)Nc1c(C)cccc1C [Lidocaine], the “maximum safe mg/kg dosage of tumescent lidocaine (estimated)” value ([4]; adults, TLA without liposuction) is given as 30 mg/kg, the “dosage limitation approved by the FDA for infiltration local anesthesia” value ([4]; commercial lidocaine (1%) with epinephrine (1:100,000)) is given as 7 mg/kg and the “duration of local anesthesia” value ([4]; routine local anesthesia) is given as 2 h. The “lidocaine concentration consistently inhibiting in-vitro platelet aggregation” value (platelet aggregation; aggregation induced by ADP, epinephrine and collagen) was ≥ 0.5 mg/mL, the “effect on platelet aggregation” value (platelet aggregation; safe systemic concentrations (≦6 micrograms/ml)) was “no effect” and the “bactericidal effect in vitro” value (S. aureus) was “bactericidal”.
